What was measured:
[1] = system: E15 DIV3 mouse hippocampal neurons; assay: proNT-induced growth cone collapse in cultured hippocampal neurons (live imaging and immunofluorescence); format: cell-based; conditions: for growth cone collapse caused by the inhibitor alone: DIV3 hippocampal neurons, 5 μM EHT1864 30 min, 100 nM ITX3 45 min
Protocol: (§1) To assay which pathways are involved in filopodial collapse, 5-10 ng/ml proNGF, 10 ng/ml proBDNF, 25-50 ng/ml BDNF (Peprotech) or 25-100 ng/ml NGF (Harlan) was added to E15 primary hippocampal neurons for 20 min before fixation. In some cases, cells were pretreated with 100 nM K-252a (Calbiochem) for 20 min, 100 nM Gö6976 (Calbiochem) for 1 hour, 5 μM EHT1864 (Sigma) for 30 min or 100 nM ITX3 (ChemBridge Corporation, cat. no. 6007262) for 45 min. To block SorCS2, cells were incubated with 20 μg/ml anti-SorCS2 or control IgG for 20 min on ice before proNGF addition at 37° C.
(§2) DIV3 hippocampal neurons were fixed in 4% paraformaldehyde/20% sucrose for 10 min. The fixative was quenched with 50 mM NH4Cl in PBS for 5 min and cells were permeabilized with 0.1% TritonX-100 in PBS for 2 min. Alternatively, cells were fixed with ice-cold methanol for 5 min. Coverslips were blocked with 10% normal donkey serum, 2% bovine serum albumin and 0.25% fish skin gelatin in Tris-buffered saline for 30 min, incubated with primary antibodies diluted in blocking solution for 30 min, washed three times with Tris-buffered saline/0.25% fish skin gelatin, incubated with secondary antibodies mixed with Hoechst in blocking buffer for additional 30 min, washed and mounted using Mowio1488. Cells were imaged using a LSM510 laser-scanning confocal microscope equipped with a 40× Plan Neofluor NA1.3 DIC oil-immersion objective (Carl Zeiss Microimaging). Images were processed using LSM510 software (Zeiss) and ImageJ (NIH).
Cells were plated on gridded glass bottom dishes (MatTek Corporation) and imaged at DIV3 in phenol red-free Neurobasal medium (Invitrogen) supplemented with 30 mM HEPES-NaOH, pH7.4 using an Olympus IX71 inverted microscope driven by IPLab software (BD Biosciences) and equipped with a 60× PlanApoN objective (NA 1.42), a Hamamatsu EM-CCD camera and a heated stage maintained at 37° C., or driven by softWoRX software (version 3.7.1, DeltaVision), and equipped with a CoolSnap HQ2 camera (Photometrics) and an environmental chamber maintained at 37° C. Images were taken every 15 seconds. After live imaging cells were fixed, counterstained for p75, located by grid number and examined for p75 expression. All movies were exported and processed using IPLab (BD Biosciences), softWoRX (version 3.7.1, DeltaVision) and ImageJ (NIH) software. Filopodia length and speed were both analyzed using ImageJ (NIH) software. For this, two times ten consecutive frames, spaced 5-10 min apart, were analyzed before and again after treatment. In the length analysis, a line was drawn along an individual filopodium and measured at every time point, and the measurements were averaged before and after treatment. For the speed analysis, the filopodial tip was tracked using the ImageJ Manual Tracking plugin. Up to four individual filopodia were analyzed per movie, and a minimum of four movies taken from separate experiments were analyzed per condition.
Primary hippocampal and cortical neurons were isolated from E15 C57BL/6 mouse embryos as previously described (PEREIRA, D. B. et al., Journal of Neuroscience 27:4859-4869 (2007)). Briefly, neurons were dissociated by incubation with 0.05% trypsin at 37° C. for 8 min followed by trituration with fire-polished glass Pasteur pipettes. Cells were plated on poly-D-lysine coated dishes and grown in Neurobasal medium containing B27, 0.5 mM glutamine (all Invitrogen) and 10 μM 5-fluorodeoxyuridine. Hippocampal neurons were transfected at DIV2 using Lipofectamine2000 (Invitrogen). For coverslips in a 24-well plate, 0.5 μg plasmid were mixed with 0.5 μl Lipofectamine2000, and for glass bottom dishes, 1.5 μg plasmid were mixed with 1.5 μl Lipofectamine2000. The complexes were added to the cells for 30-45 min, and then neurons were placed back into preconditioned media until analysis the following day. […]

[2] = system: Rac; assay: Rac activity assay (GST-Pak-CRIB pull-down of activated Rac); format: cell-based, mouse; conditions: primary neuronal cultures
Protocol: Rac activity assays were performed as described previously (NEUBRAND, V. E. et al., Journal of Cell Science 123:2111-2123 (2010)). […] Cells were lysed in lysis buffer supplemented with 10 mM MgCl, lysates were cleared by centrifugation at 9000 g for 1 min, and cleared lysates were incubated with GST or GST-Pak-CRIB beads for 30 min at 4° C. Beads were washed and isolated active Rac was analyzed by Western blot. As a control, extra lysates were incubated with 0.1 mM GDP or 0.1 mM GTPγS for 30 min at room temperature before incubation with GST-Pak-CRIB beads. Western blots were analyzed by densitometry using ImageJ software, and isolated active Rac was normalized to the input.
GST and GST-Pak-CRIB proteins were expressed in E. coli BL21DE3 cells at 25° C. for 3 hours. Bacteria were disrupted by incubation with PBS supplemented with lysozyme on ice for 30 min and subsequent addition of 1 mM MgCl2, 0.1% TritonX-100 and 0.1 mg/ml DNAse for an additional 30 min. Bacterial lysates were cleared by centrifugation for 5 min at 3000 g and cleared lysates were incubated with glutathione sepharose. Beads were washed and the purity of the recombinant proteins was analyzed by Coomassie blue staining. 20 μg of sepharose coupled purified protein was used per reaction.

[3] = system: E15 DIV3 mouse hippocampal neurons; assay: Pretreatment with antibodies or inhibitors before proNGF addition, growth cone / filopodial collapse; format: cell-based; conditions: for effect of pretreatment on proNGF-induced growth cone / filopodial collapse: pretreatment before proNGF for 20 min, 20 μg/ml antibody or control IgG 20 min, 100 nM Gö6976
Protocol: as §1, §2
Primary hippocampal and cortical neurons were isolated from E15 C57BL/6 mouse embryos as previously described (PEREIRA, D. B. et al., Journal of Neuroscience 27:4859-4869 (2007)). Briefly, neurons were dissociated by incubation with 0.05% trypsin at 37° C. for 8 min followed by trituration with fire-polished glass Pasteur pipettes. Cells were plated on poly-D-lysine coated dishes and grown in Neurobasal medium containing B27, 0.5 mM glutamine (all Invitrogen) and 10 μM 5-fluorodeoxyuridine. Hippocampal neurons were transfected at DIV2 using Lipofectamine2000 (Invitrogen). For coverslips in a 24-well plate, 0.5 μg plasmid were mixed with 0.5 μl Lipofectamine2000, and for glass bottom dishes, 1.5 μg plasmid were mixed with 1.5 μl Lipofectamine2000. The complexes were added to the cells for 30-45 min, and then neurons were placed back into preconditioned media until analysis the following day. HT1080 cells were grown in DMEM/10% fetal bovine serum (both Invitrogen) and transfected using the AMAXA nucleofector (Lonza) according to manufacturer's instructions. 293FT cells were grown in DMEM/10% fetal bovine serum and transfected with Lipofectamine2000 according to manufacturer's instructions.

Cc1cc(/C=c2/sc3nc4ccccc4n3c2=O)c(C)n1-c1ccccc1 [ITX3, reference compound]
growth cone collapse caused by the inhibitor alone [1]: led to the collapse of growth cone structures | Rac activity after inhibitor treatment [2]: striking decrease in Rac activity

20-28: small peptide inhibitor 20-28 (of PKC) (FARKGALRQ; UniProt P17252 20-28, looked up, fragment)
effect of pretreatment on proNGF-induced growth cone / filopodial collapse [3]: exposure to proNGF failed to induce collapse of actin-rich structures

C3 transferase [reference compound]
growth cone collapse caused by the inhibitor alone [1]: neither induced growth cone collapse | effect of pretreatment on proNGF-induced growth cone / filopodial collapse [3]: nor did they interferen with proNGF-mediated growth cone collapse

O=c1cc(CN2CCOCC2)occ1OCCCCCSc1ccnc2cc(C(F)(F)F)ccc12 [EHT 1864, reference compound]
growth cone collapse caused by the inhibitor alone [1]: led to the collapse of growth cone structures | Rac activity after inhibitor treatment [2]: striking decrease in Rac activity

Cn1c2ccccc2c2c3c(c4c5ccccc5n(CCC#N)c4c21)CNC3=O [Gö6976]
effect of the agent alone on neuronal / actin morphology ([3]; agent alone, without proNGF): had no effect on actin morphology | effect of pretreatment on proNGF-induced growth cone / filopodial collapse [3]: exposure to proNGF failed to induce collapse of actin-rich structures

C[C@@H](N)[C@H]1CC[C@H](C(=O)Nc2ccncc2)CC1 [Y-27632, reference compound]
growth cone collapse caused by the inhibitor alone [1]: neither induced growth cone collapse | effect of pretreatment on proNGF-induced growth cone / filopodial collapse [3]: nor did they interferen with proNGF-mediated growth cone collapse

B1: NGF: mature nerve growth factor (Harlan) (protein, UniProt P01139 122-241, looked up)
Beta-nerve growth factor: SSTHPVFHMGEFSVCDSVSVWVGDKTTATDIKGKEVTVLAEVNINNSVFRQYFFETKCRASNPVESGCRGIDSKHWNSYCTTTHTFVKALTTDEKQAAWRFIRIDTACVCVLSRKATRRG
growth cone collapse ([1]; p75NTR-positive cells, 20 min exposure, 10 ng/ml proNGF, 10 ng/ml proBDNF with K252a, 5 ng/ml NGF): nor did NGF lead to actin rearrangements

From US20130336988A1, “METHODS FOR TREATING EARLY STAGE OR MILD NEUROLOGICAL DISORDERS” (NEW YORK UNIVERSITY, priority 2010, published 2013)
